Experimental data: patent publication US10463669B2, “Composition for treating or preventing liver cancer” (Seoul National University R&DB Foundation, priority 2016, dated 2019)

Assays:
Format in all cases: cell-based, human
[1] = test system: TERT expression in THLE-3 cells; test: TERT expression, quantitative real time-PCR and immunoblot
Procedure: (§1) Medium was exchanged every day, and the aforementioned cells were cultured for 4 days in 300 μmol/L hydrogen peroxide (H2O2) (Sigma Aldrich; H1009). In several experiments, the cells were treated for 1 hour with 5 mmol/L N-acetylcysteine (NAC) (Sigma Aldrich; A7250), 25 μmol/L idelalisib (LC Laboratoties, Woburn, Mass., USA; I-7447), 25 μmol/L perifosine (LC Laboratoties, Woburn, Mass., USA; P-6522), or 30 μmol/L GSK3β inhibitor (GSK3β inhibitor XI) (Santa Cruz; sc-204770) (31) before adding H2O2. Furthermore, sterilized distilled water (pH 7.0) was used as a negative control (i.e., mock treatment).
(§2) PCR was carried out by using TOPrealm qPCR 2×PreMIX (SYBR Green with high ROX) (Enzynomics, Daejeon, Korea; RT501M) and ABI Prism 7300 thermal cycler (Applied Biosystems, Foster City, Calif., USA). […] To examine the primer specificity, a dissociation step was additionally included.
(§3) Total 2×10^5 cells were boiled for 5 minutes in 2×SDS sample buffer (100 mmol/L TrisHCl [pH 6.8], 4% SDS, 0.2% bromophenol blue, 20% glycerol, and 200 mmol/L β-mercaptoethanol), and then subjected to SDS-PAGE and Western blotting. To detect the TERT, the cells were cultured in 2×SDS sample buffer for 15 minutes at 55° C. TERT-specific (1:300, Rockland Immunochemicals, Gilbertsville, Pa., USA; 600-401-252), AKT-specific (1:1000, Cell Signaling Technology; #9272), phospho-AKT-specific (1:2000, Cell Signaling Technology; #4060), GAPDH-specific (1:2000, Santa Cruz Biotechnology; sc-47724), or β-actin-specific (1:2000, Sigma-Aldrich, St. Louis, Mo., USA; A5441) antibody was diluted in 5% skim milk or bovine serum albumin with TBS-Tween 20, cultured overnight at 4° C., washed, and cultured with HRP-conjugated secondary antibody (1:1000, Abcam; ab131368, or ab131366). By using FUSION-SOLO imager (Vilber Lourmat, Marne La Vallee, France), a chemical fluorescence image was obtained.

[2] = test system: TERT expression in HCC cell lines (Huh7 and Hep3B); test: as above
Procedure: as §1, §2, §3

[3] = test system: telomere length in THLE-3 cells; test: Telomere length (immunoFISH, Flow FISH, quantitative PCR)
Procedure: Flow FISH was carried out as described before (Rufer N, et al., Nat Biotechnol. 1998; 16: 743-7) with few modifications. The cells were washed twice with cold PBS (phosphate-buffered saline) solution containing 0.1% w/v bovine serum albumin (BSA). Subsequently, the cells were re-suspended in hybridization buffer (70% deionized formamide (Amresco, Solon, Ohio, USA), 20 mmol/L TrisHCl [pH 6.8], 1% BSA, and 1 nmol/L FAM-labeled telomere PNA (telomere peptide nucleic acid) probe ([…], Korea), or 1 nmol/L FAM-labeled centromere PNA probe ([…]). Volume of the hybridization buffer was adjusted to 100 μl per 10^5 cells. Next, each sample was cultured for 10 minutes in a water bath at 85° C. […] Total 15,000 to 20,000 nuclei were analyzed for the each separate culture. Telomere fluorescence intensity of the all nuclei at […] phase of the cell cycle was measured by using BD FACS Calibur flow cytometer (Becton Dickinson, Franklin Lakes, N.J., USA) in which CELLQUEST software is used. […] For quantification of the telomere fluorescence intensity, centromere fluorescence intensity, and 8-oxo-dG fluorescence intensity, the same exposure time was employed. The telomere fluorescence level and 8-oxo-dG fluorescence level of tumor tissues were calculated by division of the fluorescence level in non-tumor tissues corresponding to 5 random fields. […]

THLE-3 cells = test: Cell proliferation / cell viability, MTS assay
Procedure: THLE-3 cell line (immortalized human liver endothelial cell line produced by infection with SV40 large T antigen) was obtained from ATCC (American Type Culture Collection). Cell line authentication by KCLB and ATCC was carried out by using DNA fingerprinting as a short tandem repeat analysis. All cell lines were tested for mycoplasma contamination. […] As it has been recommended by the ATCC manual, THLE-3 cells were cultured in BEGM (Lonza) medium complemented with 10% fetal bovine serum in a humidified 5% CO2 incubator at 37° C.
As it has been described before (10), the cell viability was measured by using Cell Titer 96 MTS (Promega). Cells were sewn in an amount of 500 to 1000 cells per well, and then treated for 96 hours at a pharmaceutical concentration as described in each graph. Each analysis was repeated 3 times at least. After plotting the data, IC50 values were obtained by using GraphPad software. By using Flexstation 3 multimode plate reader (Molecular Devices), optical density showing formazan production was measured at 490 nm.

[4] = THLE-3 cells exposed to 150 μmol/L H2O2

Row | SMILES | TERT expression level ([1]; THLE-3 cells after H2O2 treatment) | TERT expression increased by ([2]; HCC cells treated with 300 μmol/L H2O2, compared to control HCC cells not exposed to H2O2) | telomere length [3, 4] | cells that did not survive (THLE-3 cells; [4]) [%] | TERT expression ([1]; THLE-3 cells) | TERT expression reduced by ([2]; 300 μmol/L H2O2-treated HCC cells plus idelalisib, compared to HCC cells treated with H2O2 only) | ROS-mediated increase in the TERT expression ([2]; H2O2-treated cells) | TERT expression ([2]; two HCC cell lines, no H2O2) | telomere length ([3]; THLE-3 cells) | IC50 (THLE-3 cells; Homo sapiens, THLE3, MTS assay, treated for 96 hours) [µM]
1 | OO [H2O2, hydrogen peroxide] | no change | 40%-45% | reduction | 85 |  |  |  |  |  | 
2 | CC[C@H](Nc1ncnc2nc[nH]c12)c1nc2cccc(F)c2c(=O)n1-c1ccccc1 [idelalisib, 5-fluoro-3-phenyl-2-[(1S)-1-(7H-purin-6-ylamino)propyl]-4(3H)-quinazolinone] |  |  |  |  | not reduced | 65%-70% | almost completely inhibited | reduced | not reduced | > 200
